Source: PubChem BioAssay (NCI)
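Five concentrations, 48 hours, 96-well plates. GI50 marks 50% less growth. TGI: total growth inhibition.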

Assays:
Assay in all cases: NCI anticancer screen, dose series, 48 h
LOX IMVI melanoma = test system: LOX IMVI melanoma
RPMI-8226 leukemia = test system: RPMI-8226 leukemia
NCI-H23 lung = test system: NCI-H23 lung
NCI/ADR-RES ovarian = test system: NCI/ADR-RES ovarian
HT29 colon = test system: HT29 colon
HCC-2998 colon = test system: HCC-2998 colon
HOP-62 NSCLC = test system: HOP-62 NSCLC
BT-549 breast = test system: BT-549 breast
SK-MEL-2 melanoma = test system: SK-MEL-2 melanoma
T-47D breast = test system: T-47D breast

Compound	TGI (LOX IMVI melanoma)	TGI (RPMI-8226 leukemia)	TGI (NCI-H23 lung)	TGI (NCI/ADR-RES ovarian)	TGI (HT29 colon)	TGI (HCC-2998 colon)	TGI (HOP-62 NSCLC)	TGI (BT-549 breast)	TGI (SK-MEL-2 melanoma)	TGI (T-47D breast)	GI50 (LOX IMVI melanoma)	GI50 (RPMI-8226 leukemia)	GI50 (NCI-H23 lung)	GI50 (NCI/ADR-RES ovarian)	GI50 (HT29 colon)	GI50 (HCC-2998 colon)	GI50 (HOP-62 NSCLC)	GI50 (BT-549 breast)	GI50 (SK-MEL-2 melanoma)	GI50 (T-47D breast)
Nc1c(-c2cccc3ccccc23)c2ccc([N+](=O)[O-])cc2c(=O)n1-c1nc2ccccc2s1	> 35.5 µM	> 49.6 µM	> 100 µM	10.5 µM	19.9 µM	> 100 µM	27.2 µM	> 100 µM	19.2 µM	> 100 µM	–	–	–	–	–	–	–	–	–	–
c1ccc2sc(SCSc3nc4ccccc4s3)nc2c1	> 100 µM	> 100 µM	> 100 µM	> 100 µM	> 100 µM	> 100 µM	> 100 µM	> 100 µM	> 100 µM	> 100 µM	–	–	–	–	–	–	–	–	–	–
Oc1ccccc1/C=N/c1nc2cc3sc(/N=C/c4ccccc4O)nc3cc2s1	> 100 µM	> 100 µM	> 100 µM	> 100 µM	> 100 µM	> 100 µM	> 100 µM	> 100 µM	> 100 µM	> 100 µM	–	–	–	–	–	–	–	–	–	–
CC(C)/C(Cl)=N\OC(=O)Nc1ccc(C#N)cc1	13.2 µM	6.88 µM	30 µM	32.2 µM	43 µM	29.9 µM	31.6 µM	26.6 µM	25.6 µM	40.2 µM	–	–	–	–	–	–	–	–	–	–
COc1ccc2cc3c4cc5c(cc4cc[n+]3cc2c1OC)OCO5	> 100 µM	35.1 µM	65.1 µM	> 100 µM	> 100 µM	> 55.5 µM	64.3 µM	7.83 µM	> 57.8 µM	> 100 µM	–	–	–	–	–	–	–	–	–	–
C(=N\NC1=NCCCN1)/c1ccc2ccccc2c1	21 µM	28.3 µM	36.6 µM	76.1 µM	23 µM	10.5 µM	26.5 µM	32.5 µM	28.2 µM	33 µM	–	–	–	–	–	–	–	–	–	–
CC1CC[C@@]2(OC1)OC1C[C@H]3[C@@H]4CC[C@H]5CC(OC6OC(CO)C(OC7OC(CO)C(O)C(O)C7OC7OC(CO)C(O)C(O)C7O)C(O)C6O)CCC5(C)[C@H]4CCC3(C)C1[C@@H]2C (some centres undefined)	5.85 µM	6.96 µM	10.7 µM	13.8 µM	1.86 µM	2.06 µM	3.65 µM	3.62 µM	8.05 µM	8.51 µM	–	–	–	–	–	–	–	–	–	–
CN(C)CCCN1C(=S)N(CCCN(C)C)c2c3cc(O)ccc3nc3c([N+](=O)[O-])ccc1c23	5.9 µM	15.5 µM	17.1 µM	22.4 µM	6.31 µM	8.02 µM	15.3 µM	28 µM	15.2 µM	9.48 µM	–	–	–	–	–	–	–	–	–	–
O=P(c1ccccc1)(c1ccccc1)N1O[C@@H](c2ccccc2)C=C[C@H]1c1ccccc1	24.1 µM	56.6 µM	25.2 µM	24 µM	26.5 µM	27.5 µM	46.5 µM	32.4 µM	24.9 µM	20 µM	–	–	–	–	–	–	–	–	–	–
COc1cc2c(cc1-c1c(C)noc1C)cc(C)c(=O)n2Cc1ccccn1	10.8 µM	3.86 µM	> 100 µM	> 100 µM	> 100 µM	17.3 µM	> 100 µM	> 100 µM	> 100 µM	> 100 µM	0.884 µM	0.307 µM	3.4 µM	1.34 µM	0.469 µM	1.79 µM	0.489 µM	3.89 µM	2.46 µM	0.456 µM
O=c1c2cc3c(cc2[nH]c2ncccc12)OCO3	> 10 µM	> 10 µM	> 10 µM	> 10 µM	> 10 µM	> 10 µM	> 10 µM	> 10 µM	> 10 µM	> 10 µM	–	–	–	–	–	–	–	–	–	–
O=c1cc(N=P(c2ccccc2)(c2ccccc2)c2ccccc2)n(-c2ccccc2)c(=O)n1-c1ccccc1	49.5 µM	33 µM	32 µM	> 100 µM	> 100 µM	69.7 µM	32.4 µM	95.6 µM	58.1 µM	55.2 µM	–	–	–	–	–	–	–	–	–	–
C/C(CC1C2CCCC1C2)=N\NC(N)=O (centres undefined)	> 100 µM	> 100 µM	> 100 µM	> 100 µM	> 100 µM	> 100 µM	> 100 µM	> 100 µM	> 100 µM	> 100 µM	–	–	–	–	–	–	–	–	–	–
CN(C)c1ccc(C=C2N=C(c3ccccc3)N(c3cc(C(=O)c4ccccc4)ccc3N3C(=O)/C(=C/c4ccc(N(C)C)cc4)N=C3c3ccccc3)C2=O)cc1	> 100 µM	8.86 µM	–	85.1 µM	24.7 µM	22.7 µM	> 100 µM	> 100 µM	21.4 µM	> 100 µM	–	–	–	–	–	–	–	–	–	–
COC(=O)[C@]12CC[C@H]3CN(C(=O)OCc4ccccc4)[C@H]([C@H]31)[C@H](c1ccco1)N2S(=O)(=O)c1ccc(C)cc1	32.3 µM	35.9 µM	48.5 µM	61.2 µM	58.7 µM	34.5 µM	74.2 µM	35.6 µM	49.3 µM	93 µM	–	–	–	–	–	–	–	–	–	–
